Measured values as given in patent US20030050249A1, “Complexes of alpha-6 integrin subunits with small peptides and methods for treating indications resulting from modulation of integrin-mediated responses by altering signal transduction” (priority 2000, published 2003).
Ends that are not written are not given here. Peptide text beside a SMILES is read from it. * marks the point of attachment. For = O=C*

Columns and labels:
[1] = system: normal human peripheral blood mononuclear cells; test: Effects of HK-X on cultures of human peripheral blood mononuclear cells with and without Con A (cell cycle, viability, apoptosis); assay type: cell-based; settings: versus vehicle
Procedure: The effects of addition of HK-X (as compared to a control of vehicle without peptide) to cultures of normal human peripheral blood mononuclear cells with and without the plant lectin, Con A, were also evaluated. […] However, HK-X induced apoptosis in a significant population of cells (˜30%) stimulated with Con A as determined by the presence of a sub G0/G1 population in the DNA profile. In cultures where the cells were not stimulated to enter the cell cycle (without Con A), the levels of sub G0/G1 were similar in HK-X treated and control cultures (<7%).

inflamed lung = settings: mouse, in vivo
Procedure: In this model HK-X was administered intranasally for up to 3 months.

[2] = mouse, in vivo
[3] = HK-X administration to normal mice
FPR = molecular target: T1, FPR (Homo sapiens, UniProt P21462); settings: compared with FMLP; cited from earlier work
T1 sequence (P21462 1-350): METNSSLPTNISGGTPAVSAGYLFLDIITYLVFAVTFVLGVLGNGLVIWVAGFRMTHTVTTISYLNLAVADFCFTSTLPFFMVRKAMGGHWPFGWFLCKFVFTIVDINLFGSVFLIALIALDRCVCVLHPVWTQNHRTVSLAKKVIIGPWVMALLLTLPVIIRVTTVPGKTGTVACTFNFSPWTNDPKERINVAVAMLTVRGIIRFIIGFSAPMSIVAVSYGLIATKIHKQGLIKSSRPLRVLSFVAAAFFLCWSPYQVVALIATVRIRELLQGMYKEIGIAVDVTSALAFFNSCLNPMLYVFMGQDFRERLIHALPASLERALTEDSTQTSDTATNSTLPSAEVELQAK

[4] = system: rat peritoneal mast cells; test: Binding of FITC-HK-X to rat peritoneal mast cells; settings: freshly isolated mast cells, FIG. 3
Procedure: Rat peritoneal mast cells were isolated by infusion of 35 ml of Tyrode's Solution into the peritoneal cavity of anesthetized rats. The rats were then sacrificed by injection of an overdose of anesthetic. The peritoneal cells were harvested, placed into 15 ml centrifuge tubes. The cells were pelleted by centrifugation at 250×g for 10 min at room temperature.
Other cell types were also tested for the ability to bind FITC labeled HK-X on their cell surface.

What does the source list for CSCC[C@H](NC=O)C(=O)N[C@@H](CC(C)C)C(=O)N[C@@H](Cc1ccccc1)C(=O)N[C@@H](Cc1ccccc1)C(=O)O [HK-X, f-Met-Leu-Phe-Phe] (For-MLFF-OH)?
cell viability [1]: did not effect cell viability; pathological changes in the alveoli, bronchi or vessels (inflamed lung): no pathological changes; toxicity [2]: no discernable toxicity; distribution or numbers of nucleated cells of the peripheral blood ([3]; 10 μg to 1000 μg per adult mouse): no alterations; numbers of antibody forming cells (PFC), IgM and IgG ([3]; mice immunized with sheep red cells, HK-X prior to and after immunization): no alteration; Liver and kidney function ([3]; normal mice): unaffected; production of required cytokines ([3]; normal mice): did not down regulate; proliferation and differentiation of hematopoietic precursors of neutrophils, basophils, monocytes and lymphocytes ([3]; normal mice): did not negatively affect

For “Met-Met-Trp-Leu-Leu (MMWLL; printed: Met-Met-Trp-Leu-Leu)”, which neutrophil function activity (FPR) is on record?
The neutrophil function activity was “comparable in neutrophil function activity to FMLP”.

With “FITC-HK-X: fluoresceinated HK-X (f-Met-Leu-Phe-Phe) (MLFF; not fully specified; also: FITC label, site not given here)” as the compound, how does the “numbers of FITC-HK-X bound” value [4] read?
The value was “roughly equivalent to that of human eosinophils”.
